We go through twelve compounds from patent US11028086B2, “Pyrido-imidazo rifamycins” (Biofer S.p.A., priority 2017, dated 2021).

SMILES strings stand for the structures. Values after ≈ are worked out from the molar mass of the structure shown. A value given as a limit tells only on which side of the number the result lay.

Format in all cases: cell-based
One assay concerns Escherichia Coli NK12. The experiment in a line: MIC by serial dilution, Strain D. The settings on record: COLINK12, range between last concentration with growth and first without growth. The procedure: (§1) The MICs were calculated using the serial dilution method, and are expressed as the range between the last concentration at which the bacterial strain grows and the first concentration at which the strain tested no longer grows.

For assay [1], the system named is Bacillus Subtilis ATCC 6633. The experiment in a line: MIC by serial dilution, Strain B. The settings on record: ATCC6633, range between last concentration with growth and first without growth. The procedure: as §1
The subject of assay [2] is Staphylococcus aureus IM149. The experiment in a line: MIC by serial dilution, Strain A. The settings on record: for MIC: range between last concentration with growth and first without growth. On the procedure:
as §1

For assay [3], the system named is Escherichia Coli ATCC 25922. The assay can be described thus: MIC by serial dilution, Strain C. The settings on record: ATCC25922, range between last concentration with growth and first without growth. The procedure: as §1
Assay [4] has as its system Gram-positive and Gram-negative strains. The assay can be described thus: Antibacterial activity, overall statements on the MIC test. The procedure: as §1

As for `CO[C@H]1/C=C/O[C@@]2(C)Oc3c(C)c(O)c4c(O)c(c5c(nc6cc(CO)ccn65)c4c3C2=O)NC(=O)/C(C)=C\C=C\[C@H](C)[C@H](O)[C@@H](C)[C@@H](O)[C@@H](C)[C@H](OC(C)=O)[C@@H]1C` [Example 1, 4′-methylol-4-desoxypyrido[1′,2′-1,2]imidazo[5,4-c]rifamycin SV], the minimum inhibitory concentration (MIC) against Escherichia Coli NK12 was in the range of 4 to 8 µg/mL (≈ 4.99 to 9.98 µM); in assay [1], 2 to 4 µg/mL (≈ 2.49 to 4.99 µM); in assay [2], 8 to 16 µg/mL (≈ 9.98 to 20 µM); in assay [3], 8 to 16 µg/mL (≈ 9.98 to 20 µM).
For `CO[C@H]1/C=C/O[C@@]2(C)Oc3c(C)c(O)c4c(O)c(c5c(nc6cc(C=O)ccn65)c4c3C2=O)NC(=O)/C(C)=C\C=C\[C@H](C)[C@H](O)[C@@H](C)[C@@H](O)[C@@H](C)[C@H](OC(C)=O)[C@@H]1C` [Example 2, 4′-formyl-4-desoxypyrido[1′,2′-1,2]imidazo[5,4-c]rifamycin SV], the minimum inhibitory concentration (MIC) (against Escherichia Coli NK12; in assay [1]; in assay [2]; in assay [3]) was over 64 µg/mL in each case.
Take `CO[C@H]1/C=C/O[C@@]2(C)Oc3c(C)c(O)c4c(O)c(c5c(nc6cc(/C=N/N7CCCCC7)ccn65)c4c3C2=O)NC(=O)/C(C)=C\C=C\[C@H](C)[C@H](O)[C@@H](C)[C@@H](O)[C@@H](C)[C@H](OC(C)=O)[C@@H]1C` [Example 4, 4′-[(1-piperidinyl)iminomethyl]-4-desoxypyrido[1′,2′-1,2]imidazo[5,4-c]rifamycin SV]: the minimum inhibitory concentration (MIC) against Escherichia Coli NK12 was in the range of 8 to 16 µg/mL (≈ 9.07 to 18.1 µM); in assay [1], 0.062 to 0.125 µg/mL (≈ 0.0703 to 0.142 µM); in assay [2], 0.03 to 0.06 µg/mL (≈ 0.034 to 0.068 µM); in assay [3], 4 to 8 µg/mL (≈ 4.54 to 9.07 µM).
For `CO[C@H]1/C=C/O[C@@]2(C)Oc3c(C)c(O)c4c(O)c(c5c(nc6cc(/C=N/N(C)C)ccn65)c4c3C2=O)NC(=O)/C(C)=C\C=C\[C@H](C)[C@H](O)[C@@H](C)[C@@H](O)[C@@H](C)[C@H](OC(C)=O)[C@@H]1C` [Example 5, 4′-[(N,N-dimethylamino)iminomethyl]-4-desoxypyrido[1′,2′-1,2]imidazo[5,4-c]rifamycin SV] the same measures were 32 to 64 µg/mL (≈ 38 to 76 µM), 0.062 to 0.125 µg/mL (≈ 0.0736 to 0.148 µM), 0.03 to 0.06 µg/mL (≈ 0.0356 to 0.0713 µM) and 32 to 64 µg/mL (≈ 38 to 76 µM).
The like results for `CO[C@H]1/C=C/O[C@@]2(C)Oc3c(C)c(O)c4c(O)c(c5c(nc6cc(/C=N/NC(=O)c7ccncc7)ccn65)c4c3C2=O)NC(=O)/C(C)=C\C=C\[C@H](C)[C@H](O)[C@@H](C)[C@@H](O)[C@@H](C)[C@H](OC(C)=O)[C@@H]1C` [Example 6, 4′-[(4-carboxyamidopyridyl)iminomethyl]-4-desoxypyrido[1′,2′-1,2]imidazo[5,4-c]rifamycin SV] were, in that order, 32 to 64 µg/mL (≈ 34.8 to 69.6 µM), 8 to 16 µg/mL (≈ 8.71 to 17.4 µM), over 64 µg/mL and over 64 µg/mL.
The like results for `CO[C@H]1/C=C/O[C@@]2(C)Oc3c(C)c(O)c4c(O)c(c5c(nc6ccc(/C=N/N(C)C)cn65)c4c3C2=O)NC(=O)/C(C)=C\C=C\[C@H](C)[C@H](O)[C@@H](C)[C@@H](O)[C@@H](C)[C@H](OC(C)=O)[C@@H]1C` [Example 7, 5′-[(N,N-dimethylamino)iminomethyl]-4-desoxypyrido[1′,2′-1,2]imidazo[5,4-c]rifamycin SV] were, in that order, 32 to 64 µg/mL (≈ 38 to 76 µM), 0.062 to 0.125 µg/mL (≈ 0.0736 to 0.148 µM), 0.03 to 0.06 µg/mL (≈ 0.0356 to 0.0713 µM) and 32 to 64 µg/mL (≈ 38 to 76 µM).
Regarding `CO[C@H]1/C=C/O[C@@]2(C)Oc3c(C)c(O)c4c(O)c(c5c(nc6ccc(/C=N/N7CCCCC7)cn65)c4c3C2=O)NC(=O)/C(C)=C\C=C\[C@H](C)[C@H](O)[C@@H](C)[C@@H](O)[C@@H](C)[C@H](OC(C)=O)[C@@H]1C` [Example 8, 5′-[(1-piperidinyl)iminomethyl]-4-desoxypyrido[1′,2′-1,2]imidazo[5,4-c]rifamycin SV], the minimal inhibitory concentration (MIC) fell in the range of 8 to 16 µg/mL (≈ 9.07 to 18.1 µM) in the assay with Escherichia Coli NK12, 0.062 to 0.125 µg/mL (≈ 0.0703 to 0.142 µM) in assay [1], 0.03 to 0.06 µg/mL (≈ 0.034 to 0.068 µM) in assay [2] and 4 to 8 µg/mL (≈ 4.54 to 9.07 µM) in assay [3].
As for `CO[C@H]1/C=C/O[C@@]2(C)Oc3c(C)c(O)c4c(O)c(c5c(nc6ccc(/C=N/N7CCCCC7)cn65)c4c3C2=O)NC(=O)/C(C)=C\C=C\[C@H](C)[C@H](O)[C@@H](C)[C@@H](O)[C@@H](C)[C@H](O)[C@@H]1C` [Example 11, 25-desacetyl-5′-[(1-piperidinyl)iminomethyl]-4-desoxypyrido[1′,2′-1,2]imidazo[5,4-c]rifamycin SV], the MIC is 32 to 64 µg/mL (≈ 38.1 to 76.2 µM) in the assay with Escherichia Coli NK12, 4 to 8 µg/mL (≈ 4.76 to 9.52 µM) in assay [1], 8 to 16 µg/mL (≈ 9.52 to 19 µM) in assay [2] and 32 to 64 µg/mL (≈ 38.1 to 76.2 µM) in assay [3].
As for `CO[C@H]1/C=C/O[C@@]2(C)Oc3c(C)c(O)c4c(O)c(c5c(nc6ccc(/C=N/N(C)C)cn65)c4c3C2=O)NC(=O)/C(C)=C\C=C\[C@H](C)[C@H](O)[C@@H](C)[C@@H](O)[C@@H](C)[C@H](O)[C@@H]1C` [Example 12, 25-desacetyl-5′-[(N,N-dimethylamino)iminomethyl]-4-desoxypyrido[1′,2′-1,2]imidazo[5,4-c]rifamycin SV], the MIC with Escherichia Coli NK12 is over 64 µg/mL; in assay [1], 4 to 8 µg/mL (≈ 5 to 10 µM); in assay [2] it was 8 to 16 µg/mL (≈ 10 to 20 µM); in assay [3], over 64 µg/mL.
Turning to `CO/N=C/c1ccn2c(c1)nc1c3c4c5c(C)c(O)c3c(O)c(c12)NC(=O)/C(C)=C\C=C\[C@H](C)[C@H](O)[C@@H](C)[C@@H](O)[C@@H](C)[C@H](OC(C)=O)[C@H](C)[C@@H](OC)/C=C/O[C@@](C)(O5)C4=O` [Example 13, 4′-(N-methoxy)-iminomethyl-4-desoxypyrido[1′,2′-1,2]imidazo[5,4-c]rifamycin SV], the MIC is 8 to 16 µg/mL (≈ 9.65 to 19.3 µM) against Escherichia Coli NK12, under 0.015 µg/mL in assay [1], under 0.015 µg/mL in assay [2] and 8 to 16 µg/mL (≈ 9.65 to 19.3 µM) in assay [3]. Besides, the “MIC against strain A compared with RFX” value in assay [2] was “lower than RFX”. Further, the “antibacterial activity (in words)” value in assay [4] was “fully comparable to that of RFX”.
With `CO[C@H]1/C=C/O[C@@]2(C)Oc3c(C)c(O)c4c(O)c(c5c(nc6cc(/C=N/C(C)C)ccn65)c4c3C2=O)NC(=O)/C(C)=C\C=C\[C@H](C)[C@H](O)[C@@H](C)[C@@H](O)[C@@H](C)[C@H](OC(C)=O)[C@@H]1C` [Example 14], the MIC against Escherichia Coli NK12 fell in the range of 8 to 16 µg/mL (≈ 9.51 to 19 µM); in assay [1], 8 to 16 µg/mL (≈ 9.51 to 19 µM); in assay [2] it was 0.03 to 0.06 µg/mL (≈ 0.0357 to 0.0713 µM); in assay [3], 8 to 16 µg/mL (≈ 9.51 to 19 µM). The “MIC against strain A compared with RFX” value in assay [2] is “lower than RFX”. Further, the “antibacterial activity (in words)” value in assay [4] was “fully comparable to that of RFX”.
Consider `CO[C@H]1/C=C/O[C@@]2(C)Oc3c(C)c(O)c4c(O)c(c5c(nc6cc(/C=N/N7CCOCC7)ccn65)c4c3C2=O)NC(=O)/C(C)=C\C=C\[C@H](C)[C@H](O)[C@@H](C)[C@@H](O)[C@@H](C)[C@H](OC(C)=O)[C@@H]1C` [Example 15], for which the MIC against Escherichia Coli NK12 was 4 to 8 µg/mL (≈ 4.52 to 9.05 µM); in assay [1], 8 to 16 µg/mL (≈ 9.05 to 18.1 µM); in assay [2] it was under 0.015 µg/mL; in assay [3], 8 to 16 µg/mL (≈ 9.05 to 18.1 µM). Besides, the “MIC against strain A compared with RFX” value in assay [2] was “lower than RFX”. Also, in assay [4], the “antibacterial activity (in words)” value was “fully comparable to that of RFX”.
